Key:
[1] = tested on: mouse xenograft tumor models; assay: Antitumor activity in mouse xenograft tumor models; assay type: in vivo; conditions: oral or intravenous administration
[2] = tested on: a variety of cancer cell lines; assay: Antiproliferative activity in vitro; assay type: cell-based
[3] = Oral bioavailability in animal models; assay type: in vivo
[4] = tested on: CT26.WT mouse colon carcinoma cells; assay: Compound 1 and anti-PD-1 in the mouse CT26.WT xenograft model; assay type: in vivo
Experimental: Animals: Female Balb/c Mice, 8 weeks old, fed a high fat diet
CT26.WT cells were collected from flasks and washed once in RPMI 1640 with no additives. […] Mice were grouped once tumors were palpable on day 7 or day 8 and randomized by body weight. Treatment started with antibody and Compound 1 was begun immediately.
Animals were monitored until the dosing commenced and then were measured twice a week during dosing until tumor volume reached protocol limit or ulceration was too severe. Tumor tissue and blood/plasma were collected at the end of the study.

A20 syngeneic cells = assay: Compound 1 and anti-PD-1 in the A20 mouse xenograft model; assay type: in vivo
From the text: Animals: Female Balb/c Mice, 4-5 weeks old, fed a regular diet
A20 syngeneic cells were collected from flasks and washed once in RPMI 1640 with no additives. […] Animals were implanted with 2×10^5 cells in the right flank. Dosing commenced when tumors were greater than 100 mm^3 (around day 13) and dosing continued for 21 days or until the tumors reached the limit of 2000 mm^3.
Animals started dosing around day 13 when tumors are fully palpable and measured. Dosing continued until tumors begin to show ulceration that requires sacrifice. Tumors were collected before extensive necrosis to run ELISA and Flow analysis.

[5] = Genotoxicity testing using the Ames test
tumor tissue = assay: Tumor uptake and pharmacodynamics in xenograft tumor bearing mice; assay type: in vivo, mouse; conditions: oral or intravenous dosing
[6] = tested on: HDACs (HeLa cell nuclear extracts); assay: HDAC activity assay, Biomol Color de Lys system; assay type: biochemical; conditions: 25° C. for 1 hour
Experimental: HDAC inhibitory activity was assessed using the Biomol Color de Lys system (AK-500, Biomol, Plymouth Meeting, PA). Briefly, HeLa cell nuclear extracts were used as a source of HDACs. Different concentrations of test compounds were serially diluted in dimethylsulfoxide (DMSO) and added to HeLa cell nuclear extracts in the presence of a colorimetric artificial substrate. Final assay condition contained 50 mM Tris/C1, pH 8.0, 137 mM NaCl, 2.7 mM KCl and 1 mM MgCl2. Reactions were carried in room temperature (25° C.) for 1 hour before addition of developer for termination. Relative enzyme activity was measured in the WALLAC Victor II 1420 microplate reader as fluorescence intensity (excitation: 350-380 nm; emission: 440-460 nm). Data were analyzed using GraphPad Prism (v4.0a) with a sigmoidal dose response curve fitting for IC50 calculation.

COc1ccc(-c2nc(N3CCOCC3)c3sc(CN(C)c4ncc(C(=O)NO)cn4)cc3n2)cn1 [Compound 1, N-Hydroxy-2-(((2-(6-methoxypyridin-3-yl)-4-morpholinothieno[3,2-d]pyrimidin-6-yl)methyl)(methyl)amino)pyrimidine-5-carboxamide]
antitumor activity [1]: substantial antitumor activity
antiproliferative activity [2]: potent antiproliferative activity
oral bioavailability [3]: significant oral bioavailability
inhibition of tumor growth ([4]; CT26.WT model, Compound 1 50 mg/kg, anti-PD-1 100 ug/mouse): only small inhibition of tumor growth
TGI %* (Day 15) ([4]; CT26.WT, female Balb/c mice, Day 15, relative to Vehicle (Cmp 1) group, Cpd 1 50 mg/kg PO 5+2−, mAb 100 μg IP BIW): 3%
TGI %* (Day 13) (A20 syngeneic cells; A20, female Balb/c mice, Day 13, relative to Vehicle (Cmp 1) + isotype group, Cpd 1 100 mg/kg PO 5+2−, mAb 100 μg BIW): 60%
tumor growth inhibition (A20 syngeneic cells; A20 model, Compound 1 100 mg/kg, anti-PD-1 100 ug/mouse): significant tumor growth inhibition
safety profile (genotoxicity, Ames test) [5]: favorable safety profile
pharmacodynamic activity in tumor tissue (tumor tissue): pharmacodynamic activity in tumor tissue
uptake by the tumor tissue (tumor tissue): significant uptake by the tumor tissue
IC50 [6]: < 100 nM
